Data as given in patent US20230250262A1, “CELLULOSIC PARTICLE” (FUJIFILM Business Innovation Corp., priority 2022, published 2023).
Counter-ions that a name gives are not always drawn.

Assay: Octanol/water partition coefficient (O/W coefficient) of the second component
Details: for Second component Octanol/water partition coefficient: 1-octanol/water 1/1 by mass, value of the second component species; for logP: 1-octanol/water (1/1 by mass)
Method: In this context, the octanol/water partition coefficient is a value calculated through the following.
A sample is dissolved in a mixture of octanol and water in a ratio by mass of 1/1, and the concentration of the substance in the octanol (Co) and the concentration of the substance in the water (Cw) are measured; then the octanol/water partition coefficient (O/W coefficient) is calculated according to equation (1) below.
O/W coefficient=Log(Co/Cw) (1)
The concentration of the substance in the octanol (Co) and the concentration of the substance in the water (Cw) are measured as follows.
The OECD test guideline is followed. More specifically, a sample is dissolved in a mixture of 1-octanol and water in a ratio by mass of 1/1, and the resulting solution is centrifuged until it completely separates into two layers. From the 1-octanol layer, an appropriate amount of octanol solution is pipetted. The tip of a syringe, into which air has been drawn in advance, is inserted into the water layer through the 1-octanol layer while the air is ejected, and the aqueous solution is sampled quickly.
For each solution, the test concentration is determined using an ion chromatograph (Metrohm, 930 Compact IC).

SMILES | Second component Octanol/water partition coefficient | logP
CCCCCCCC/C=C\CCCCCCCC(=O)N(CCO)CCO [Add1, oleic acid diethanolamide] | 6 | 
CCOC(=O)CC(O)(CC(=O)OCC)C(=O)OCC [Add10, triethyl citrate, reference compound] |  | 0.9
CC(C)COC(=O)CCCCC(=O)OCC(C)C [Add11, diisobutyl adipate, reference compound] |  | 4
CCCCCCCCCCCCCCCCCC(=O)N(CCO)CCO [Add21, stearic acid diethanolamide] | 11 | 
CCCCCCCCCCCC(=O)NCC(C)O (stereo not shown) [Add22, lauric acid monoisopropanolamide] | 4 | 
CCCCCCCCCCCCc1ccc(O)cc1 [Add32, 4-dodecylphenol] |  | 5
CCCCCCC(CCCC)(CCCC)Cc1ccc(O)cc1 [Add33, 4-2,2-dibutyl-octylphenol] | 21 | 
